Measurements published in PubChem BioAssay (NCI).
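Method: 48-hour compound exposure of cells in 96-well plates, five concentrations, linear interpolation of endpoints. Abbreviation: GI50, concentration required for 50% inhibition of growth. The concentration for full growth arrest is given as TGI.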

Columns and labels:
Assay in all cases: NCI anticancer screen, dose series, 48 h
OVCAR-3 ovarian = system: OVCAR-3 ovarian
SF-539 CNS = system: SF-539 CNS
NCI/ADR-RES ovarian = system: NCI/ADR-RES ovarian
IGROV1 ovarian = system: IGROV1 ovarian
MDA-MB-231 breast = system: MDA-MB-231 breast
HCC-2998 colon = system: HCC-2998 colon
NCI-H23 lung = system: NCI-H23 lung
ACHN renal = system: ACHN renal
SR leukemia = system: SR leukemia
CAKI-1 renal = system: CAKI-1 renal

Structure (SMILES)	GI50 (OVCAR-3 ovarian)	TGI (OVCAR-3 ovarian)	GI50 (SF-539 CNS)	TGI (SF-539 CNS)	GI50 (NCI/ADR-RES ovarian)	TGI (NCI/ADR-RES ovarian)	GI50 (IGROV1 ovarian)	TGI (IGROV1 ovarian)	GI50 (MDA-MB-231 breast)	TGI (MDA-MB-231 breast)	GI50 (HCC-2998 colon)	TGI (HCC-2998 colon)	GI50 (NCI-H23 lung)	TGI (NCI-H23 lung)	GI50 (ACHN renal)	TGI (ACHN renal)	GI50 (SR leukemia)	TGI (SR leukemia)	GI50 (CAKI-1 renal)	TGI (CAKI-1 renal)
COC(=O)[C@H](Cc1cn(C)cn1)NC(=O)[C@@H](NC(=O)Nc1cc(C(F)(F)F)cc(C(F)(F)F)c1)C(C)C	1.86 µM	3.48 µM	> 10 µM	> 10 µM	> 10 µM	> 10 µM	6.15 µM	> 10 µM	1.71 µM	4.42 µM	1.81 µM	3.46 µM	4.6 µM	> 10 µM	> 10 µM	> 10 µM	3.08 µM	> 10 µM	> 10 µM	> 10 µM
CNCc1ccc(-c2[nH]c3cc(F)cc4c3c2CCNC4=O)cc1	19.9 µM	47.2 µM	15 µM	30.6 µM	69.2 µM	> 100 µM	20.8 µM	> 72.2 µM	11.1 µM	33 µM	16.5 µM	35.6 µM	20.8 µM	> 56.7 µM	18.7 µM	> 58.2 µM	9.51 µM	44 µM	16.7 µM	60 µM
COc1cc(/C=C2\C(=O)N(C)c3ccccc32)cc(OC)c1OC	21.3 µM	76.9 µM	19.7 µM	> 100 µM	13.7 µM	56.7 µM	7.52 µM	53.4 µM	14.2 µM	68.4 µM	19 µM	44.4 µM	21.2 µM	73.1 µM	14.7 µM	62.8 µM	6.26 µM	39.7 µM	17.1 µM	80.9 µM
CC1=C2[C@@H](CC1)[C@]1(C)O[C@@](C3CC3)(C[C@H]1OC(=O)CO)[C@H]2OC(=O)/C=C/c1ccccc1	15.3 µM	29.2 µM	16.6 µM	31.6 µM	0.103 µM	14.1 µM	19.7 µM	42.7 µM	18.3 µM	37.6 µM	16.9 µM	33.2 µM	16.6 µM	36 µM	0.0339 µM	13.2 µM	13.5 µM	39.2 µM	10.9 µM	24 µM
CNCc1cccc2c1OCCOCCOCCC(C)S(=O)(=O)c1ccc(cc1)-c1cnc(N)c(n1)C(=O)N2 (stereo not given)	1.16 µM	2.59 µM	1.28 µM	2.56 µM	5.31 µM	29.1 µM	0.659 µM	4.78 µM	2.34 µM	5.5 µM	4.53 µM	17.2 µM	3.71 µM	18.9 µM	1.3 µM	2.82 µM	0.0861 µM	4.71 µM	0.365 µM	2.22 µM
Nc1ncc(C2[C@H](CNC(=O)c3cc(Br)c[nH]3)C(CNC(=O)c3cc(Br)c[nH]3)[C@@H]2c2cnc(N)[nH]2)[nH]1 (stereo not given in full)	> 50 µM	> 50 µM	8.79 µM	> 50 µM	> 50 µM	> 50 µM	> 50 µM	> 50 µM	8.01 µM	> 50 µM	> 50 µM	> 50 µM	> 50 µM	> 50 µM	> 50 µM	> 50 µM	25.1 µM	> 50 µM	> 50 µM	> 50 µM
COc1cccc(C2C(C#N)=C(N)Oc3cc4c(cc32)OCO4)c1 (stereo not given)	0.0264 µM	0.0661 µM	0.0401 µM	> 33.1 µM	0.0299 µM	0.151 µM	0.305 µM	30.8 µM	0.695 µM	> 52.1 µM	0.0813 µM	2.52 µM	0.0694 µM	15.8 µM	2.26 µM	> 100 µM	0.0291 µM	27.8 µM	0.0409 µM	42.6 µM
COc1c(O)c2c3c(c1OC)-c1ccccc1CC3N(S(=O)(=O)c1ccc(C)cc1)CC2 (stereo not given)	1.18 µM	2.68 µM	1.15 µM	3.16 µM	1.49 µM	4.54 µM	2.13 µM	> 50 µM	2.01 µM	> 50 µM	4.01 µM	34.1 µM	1.17 µM	2.71 µM	2.91 µM	> 50 µM	1.36 µM	7.09 µM	2.12 µM	> 50 µM
COc1ccc(/C=C\c2cc(OC)c(OC)c(OC)c2)c(NS(=O)(=O)c2ccc(C(C)(C)C)cc2)c1O	0.225 µM	12 µM	0.159 µM	0.509 µM	0.309 µM	19.6 µM	0.986 µM	35.8 µM	0.358 µM	16.9 µM	1.5 µM	15.3 µM	0.497 µM	17.5 µM	0.452 µM	23.5 µM	0.0453 µM	> 100 µM	0.0674 µM	18.7 µM
COc1cc(N(CCC#N)CCC#N)ccc1/C(N=Nc1ccc(C(=O)O)cc1)=N/NC(=O)c1cc(Br)ccc1O	65 µg/mL	> 150 µg/mL	85.8 µg/mL	> 150 µg/mL	49.4 µg/mL	> 150 µg/mL	78.1 µg/mL	> 150 µg/mL	72.7 µg/mL	> 150 µg/mL	38.3 µg/mL	81.7 µg/mL	> 150 µg/mL	> 150 µg/mL	108 µg/mL	> 150 µg/mL	85.4 µg/mL	> 150 µg/mL	130 µg/mL	> 150 µg/mL
CCCCCCCCCCCCOC1C(C(CC(=O)N2CCN(Cc3ccc4c(c3)OCO4)CC2)NS(=O)(=O)c2cc(Cl)cc(Cl)c2)OC2OC(C)(C)OC21 (stereo not given)	20.3 µM	> 100 µM	43 µM	> 100 µM	> 100 µM	> 100 µM	14 µM	> 100 µM	18.1 µM	> 89.8 µM	5.54 µM	> 51.4 µM	17.4 µM	> 100 µM	33.8 µM	> 100 µM	3.85 µM	47.4 µM	> 100 µM	> 100 µM
